One experiment has as its system EA.hy926. Briefly: MTT cytotoxicity test. It is filed as cell-based, human. From the text:
(§1) The group of human cell lines used in this study were represented by the tumor cell lines MDA-MB (breast carcinoma), EJ (urinary bladder carcinoma), K-562 (chronic myeloid leukemia), HL-60 (acute pre-myeloid leukemia), HL-60/DOX (multi-drug resistant HL-60 cell line, with over expression of MRP-1) and the non-tumorigenic cell lines HEK-293 (embryonic kidney cells) and EA.hy926 (vascular endothelial cells). EJ, HL60 and EA.hy926 were purchased from American Type Culture Collection (ATCC) (Manassas, Virginia). The other cell lines were purchased from the German Collection of Microorganisms and Cell Cultures (DSMZ GmbH, Braunschweig, Germany). HL-60/DOX cell lines were generated by periodically treating HL-60 cells with anthracyclins. The conditions in which the cell culture flasks were maintained were as follows: 37 °C in an incubator “BB 16-Function Line” Heraeus (Kendro, Hanau, Germany) with 5% CO2 humidified atmosphere. The growth medium was 90% RPMI-1640, supplemented with 10% FBS and 2 mM L-glutamine. MDA-MB-231, EJ, HEK-293 and EA.hy926 cells were maintained as adherent monolayer cultures while all the other (leukemic) cell lines were grown as suspension type cultures. Cells were maintained in log phase: the adherent cell lines were subjected to trypsinization 1–2 times a week and the leukemic cell lines were passaged 2–3 times a week by removing of part of the cellular suspension and substituting it with fresh medium.
(§2) The evaluation of cytotoxic activity was conducted by MTT test as described previously. The median inhibitory concentration (IC50) values which represent the half-maximal concentration values were calculated from sigmoidal concentration–response curves, using non-linear regression analysis (Curve fit, GraphPad Prizm 5.0 software, GraphPad Software Inc., San Diego, CA, USA). The selectivity index was calculated as the ratio of the IC50 of a non-cancerous line (HEK-293 or EA.hy926) and the average IC50 of all chemosensitive tested tumor cell lines (x). Therefore, SI=IC50HEK-293/IC50x . The resistance index (RI) was calculated as the ratio of IC50 of the multi-drug resistant HL-60/DOX cell line and the IC50 of its parent cell line: RI=IC50HL-60/DOX/IC50HL-60 .
(In general: Formazan colour is commonly taken as a measure of viable cells.)

For the next experiment, the system named is EJ. Description: MTT cytotoxicity test. It is filed as cell-based, human. As to conditions: 72 h exposure.
Source text: as §1, §2

Another experiment deals with HEK-293. Briefly: MTT cytotoxicity test. It is filed as cell-based, human.
Source text: as §1, §2

The subject of a further experiment is HL-60/DOX. Briefly: MTT cytotoxicity test. It is filed as cell-based, human. As to conditions: 72 h exposure.
Source text: as §1, §2

The test system of another experiment is HL-60. Description: MTT cytotoxicity test. It is filed as cell-based, human. The following applies: HL-60, 72 h exposure.
Source text: as §1, §2

The subject of the next experiment is K-562. Briefly: MTT cytotoxicity test. It is filed as cell-based, human.
Source text: as §1, §2

Another experiment deals with MDA-MB-231. Briefly: MTT cytotoxicity test. It is filed as cell-based, human. As to conditions: MDA-MB-231, 72 h exposure.
Source text: as §1, §2

In experiment [1] the test system is Enterococcus faecalis (ATCC 29212). Briefly: MIC by broth microdilution. It is filed as cell-based. From the text:
(§3) The Gram-positive bacterial strains that were examined for susceptibility were: Staphylococcus aureus (ATCC 29213, American Type Cell Culture Collection, Manassas, VA, USA), Staphylococcus aureus—MRSA (NBIMCC 8327-resistant to methicillin and oxacillin, National Bulgarian Collection for Industrial Microorganisms and Cell Cultures, Sofia, Bulgaria), Enterococcus faecalis (ATCC 29212) and Streptococcus pyogenes (SAIMC 10535, Collection of the Stephan Angeloff Institute of Microbiology, Sofia, Bulgaria). The only Gram-negative bacterial strain used was Escherichia coli (ATCC 35218). Bacteria were maintained in Trypticase Soy Broth (TSB, Himedia, India) at 37 °C, aerobic conditions. For the experiments brain heart infusion (BHI) broth (#M210 HiMedia, Mumbai, India) was used for E. faecalis and S. pyogenes and Mueller Hinton broth (MHB, #M0405B) from Thermo Scientific-Oxoid (Basingstoke, UK)—for all other strains.
(§4) BMD was performed according to the following protocol of ISO 20776/1-2006 [117]. A bacterial suspension with density of 10^8 CFU/mL (0.5 McFarland standard, OD600) was prepared from an overnight grown liquid bacterial culture homogenized over vortex and brought to a working bacterial suspension (WBS) with concentration of 5×10^5 CFU/mL by being diluted 200× with MHB or BHI broth and homogenized over vortex again. Two-fold serial dilutions of compounds 3–5 was prepared in 96-well round bottom plates to a volume of 50 μL and final range of concentrations 100–0.2 μg/mL. Stock solutions were dissolved in ethanol and MHB was used as diluent and as test for absence of contamination. Three wells were left as blank samples and 6 wells were left for control samples. An equivalent volume (50 μL) of the WBS was inoculated to each well in the aforementioned plates achieve final bacterial density of […] with the exception of the blank wells. After 18–24 h incubation under aerobic standardized conditions at 37 °C the plates were examined. […] Antibiotics dissolved in sterile distilled water were used as referent positive controls. They were penicillin G (PEN, #B0500000, Merck KGaA, Darmstadt, Germany) for E. faecalis and S. pyogenes, gentamicin (GEN, #15750-037, 50 mg/mL, Gibco, Paisley, UK) for all bacteria except S. pyogenes and ciprofloxacin (CIP, Ciproflav:10 mg/mL, Polfa S.A. Warsaw Pharmaceutical Works, Starogard Gdanski, Poland) for E. faecalis. The range of concentrations were 0.004–2 mg/L for PEN, 0.008–4 mg/L for GEN and 0.005–2 mg/L for CIP. The requirements of EUCAST (European Committee on Antimicrobial Susceptibility Testing) for their MICs were followed for discussing the results. In the end the plates which contained active agents were subjected to assessment of the dehydrogenase activity of the bacteria.
In general terms: In broth dilution the organism is exposed to a series of concentrations in liquid medium.

Experiment [2] relates to Staphylococcus aureus (ATCC 29213). Description: MIC by broth microdilution. It is filed as cell-based.
Source text: as §3, §4

Experiment [3] deals with Staphylococcus aureus—MRSA (NBIMCC 8327). Briefly: MIC by broth microdilution. It is filed as cell-based.
Source text: as §3, §4

The test system of experiment [4] is Streptococcus pyogenes (SAIMC 10535). Description: MIC by broth microdilution. It is filed as cell-based.
Source text: as §3, §4

The mark [5] stands for this setting: Homo sapiens, EA.hy 926, EA.hy926, 72 h exposure.
Where [6] appears, read: Homo sapiens, HEK293, HEK-293, 72 h exposure.
The mark [7] stands for this setting: Homo sapiens, K562, K-562, 72 h exposure.

“And” between values parts separate entries of the source, which are not always exact repeats. Identical values can stand only once. Like-named read-outs stand apart in the source and are kept apart here.

Usually IC50 stands for the concentration needed to halve the response being measured. A lower IC50 goes with greater potency in that assay. Broadly, the MIC is the lowest concentration found to suppress growth.

Turning to “(1R,5R,7S,8R)-4-hydroxy-5,8-dimethyl-3,7-bis(3-methylbut-2-en-1-yl)-1-(2-methylbutanoyl)-8-(4-methylpent-3-en-1-yl)bicyclo[3.3.1]non-3-ene-2,9-dione [Compound 4]”, the IC50 in the experiment on EA.hy926 (EA.hy926, 72 h exposure) came to 5.34 ± 1.9 µM; in the experiment on EJ it was 8.06 ± 1.7 µM; in the experiment on HEK-293 (HEK-293, 72 h exposure), 35.8 ± 4.4 µM; in the experiment on HL-60/DOX it was 12.2 ± 3.2 µM; in the experiment with HL-60, 22.2 ± 3.4 µM; in the experiment on K-562 (K-562, 72 h exposure), 17.2 ± 3 µM. This compound also returned a half-maximal inhibitory concentration (IC50) in the experiment with MDA-MB-231 of 12.5 ± 2.1 µM. Also, the minimal inhibitory concentration (MIC) in experiment [1] is listed as 12.5 mg/L; in experiment [1] (read-out: MIC), 25.17 µM; in [2], 0.78 mg/L; in experiment [2] (read-out: MIC) it was 1.57 µM; in [3], 12.5 mg/L; in experiment [3] (read-out: MIC), 25.17 µM. Further, the minimal inhibitory concentration (MIC) in experiment [4] was 12.50 mg/L; in experiment [4] (read-out: MIC) it was 25.17 µM.
In the case of `CC(C)=CCC[C@]1(C)[C@@H](CC=C(C)C)C[C@]2(C)C(=O)C(CC=C(C)C)=C(O)[C@@]1(C(=O)C(C)C)C2=O` [Compound 3, hyperpolyphyllirin/hyperibine J], the half-inhibitory concentration (IC50) turned out to be 19.9 ± 3.1 µM in the experiment with EA.hy926 (setting [5]); 8.02 ± 1.6 µM in the experiment on EJ (Homo sapiens); 10.7 ± 2.1 µM with HEK-293 (setting [6]); 1.28 ± 0.2 µM with HL-60/DOX (Homo sapiens); 10.9 ± 1.9 µM in the experiment with HL-60 (Homo sapiens); 3.17 ± 0.3 µM in the experiment on K-562 (setting [7]). Further, the IC50 in the experiment with MDA-MB-231 (Homo sapiens) was 2.63 ± 0.3 µM. The minimal inhibitory concentration (MIC) in experiment [1] (ATCC29212, read-out: MIC) was 8 µg/mL and 16.6 µM; in [2], 2.00 mg/L; in experiment [2] (read-out: MIC), 4.14 µM; in experiment [3] (read-out: MIC), 8 µg/mL and 16.6 µM; in [4] (read-out: MIC), 31 µg/mL and 64.2 µM.
As to `CC(C)=CCC[C@]1(C)[C@@H](CC=C(C)C)C[C@H]2C(=O)[C@]1(C(=O)C(C)C)C(=O)C(CC=C(C)C)=C2O` [Compound 5, (1S,5R,7S,8R)-4-hydroxy-1-isobutyryl-8-methyl-3,7-bis(3-methylbut-2-en-1-yl)-8-(4-methylpent-3-en-1-yl)bicyclo[3.3.1]non-3-ene-2,9-dione], the 50% inhibitory concentration (IC50) in the experiment with EA.hy926 (setting [5]) turned out to be 9.43 ± 2 µM; in the experiment on EJ (Homo sapiens) it was 1.21 ± 0.3 µM; with HEK-293 (setting [6]), 0.89 ± 0.1 µM; with HL-60/DOX (Homo sapiens), 1.71 ± 0.2 µM; in the experiment on HL-60 (Homo sapiens), 1.16 ± 0.1 µM; in the experiment with K-562 (setting [7]), 1.58 ± 0.1 µM. The compound further gave an IC50 in the experiment on MDA-MB-231 (Homo sapiens) of 1.31 ± 0.2 µM. The minimum inhibitory concentration (MIC) is 4 µg/mL and 8.53 µM in [1] (ATCC29212, read-out: MIC); 1.00 mg/L in [2]; 0.78 µg/mL to 2 µg/mL and 1.57 µM to 4.14 µM in [2] (ATCC29213, Staphylococcus aureus, read-out: MIC); 2.14 µM in experiment [2] (read-out: MIC); 1.00 mg/L in [3]; 1 µg/mL and 2.14 µM in experiment [3] (read-out: MIC). In addition, the minimal inhibitory concentration (MIC) in experiment [4] (read-out: MIC) was 4 µg/mL and 8.53 µM.
